Data set [1] deals with A. fumigatus A1160 (MFIG001). Conditions: Aspergillus fumigatus, read-out: MIC99 A. fumigatus A1160.
Data set [2] in a line: In vivo pharmacokinetics mouse model (distribution and tolerability). Also noted: species or system male CD-1 mice. How it is done:
The procedure used for in vivo pharmacokinetics experiments is described below.
1 mL of 2 mg/mL stock solution was prepared by adding 500 μL of DMSO to 2 mg of compound and vortexed well until the compound had fully dissolved. 500 μL of Saline for Injection (SFI, warmed to 37° C.) was added dropwise, under vortexing.
Working Solutions Immediately prior to dosing, the 2 mg/mL stock solution was diluted 1:5 to produce 0.4 mg/mL dosing solution. 2 mL of 0.4 mg/mL solution was prepared by adding 400 μL of […] stock solution to 1600 μL diluent (10% DMSO, 90% SFI).
The dosing solution was administered to 7 male CD-1 mice, at 5 mL/kg via intravenous (IV) injection (e.g. 30 g mouse with 150 μL). 3 mice were grouped for the blood sampling study and 4 mice were grouped for the tissue sampling study.
At each time point (0.5, 2, 4, 8 hours), 20 μL blood samples were collected from mice by tail prick into 20 μL EDTA blood collection capillary tubes on wet ice. 20 μL blood samples were added directly to the appropriate well of a 96 deep well plate and mixed with 20 μL of distilled water and the samples stored at −80° C. prior to bioanalysis.
At each time point (0.25 and 1 hour), the lung, both kidneys and the liver (left lateral lobe) were removed from culled mice (two per time point) and individually placed in pre-weighed bead beater tubes, which were then weighed to determine tissue weight. 4× weight/volume sterile water was added to the tissue. Tissues were homogenized in a Precellys bead beater then snap frozen at […] until bioanalysis.
Initial stock of Ia10 was made to 1 mg/mL in DMSO. Calibration and quality controls were made by spiking 1 mg/mL DMSO stock into desired matrix and serial dilution in matrix to desired concentration. Calibration range=1 ng/mL-5000 ng/mL. All samples were crashed out in 5× volume of Acetonitrile. Samples were centrifuged and supernatant diluted 1:3 in water to be analysed on LCMS.
Compound Ia10 has been evaluated in an in vivo pharmacokinetics mouse model in order to investigate compound distribution and tolerability.

In a further data set the test system is Rhizopus arrhizus. The experiment in a line: Expanded set of filamentous fungi, MIC broth microdilution (CLSI). Type of data set: cell-based.
A further data set deals with C. guilliiermondii. The experiment in a line: Expanded set of yeasts, MIC broth microdilution (CLSI). The conditions noted are these: MIC at 50% inhibition; for MIC50: isolate Cgui1. Type of data set: cell-based.
Data set [3] deals with Fusarium oxysporum (F7098). Conditions: read-out: MIC99 Fusarium oxysporum.
Experimental: (§1) The Minimum Inhibitory Concentration (MIC, at 99% inhibition) of the compounds was determined using the broth microdilution method as recommended by EUCAST (EUCAST Definitive Document E.DEF 9.3.2, Method for the determination of broth dilution minimum inhibitory concentrations of antifungal agents for conidia forming moulds and EUCAST Definitive Document E.DEF 7.3.2 Method for the determination of broth dilution minimum inhibitory concentrations of antifungal agents for yeasts).
The test system of a further data set is C. albicans (ATCC 90028). The conditions noted are these: Candida albicans, ATCC90028, read-out: MIC99 C. albicans.
A further data set has as its system C. glabrata. The experiment in a line: Expanded set of yeasts, MIC broth microdilution (CLSI). The class given is cell-based. The conditions noted are these: Nakaseomyces glabratus, MIC at 50% inhibition.
The subject of a further data set is Candida auris (H.17.157). The conditions noted are these: Candidozyma auris, read-out: MIC99 Candida auris.
Another data set deals with Aspergillus flavus. Put plainly: Expanded set of filamentous fungi, MIC broth microdilution (CLSI). Conditions: MIC at 50% inhibition; for MIC50: Aspergillus flavus; for MIC50 Aspergillus flavus: isolate Aflav3. Type of data set: cell-based.
Data set [4] deals with SARS-CoV-2 (hCoV-19/Australia/VIC01/2020). The experiment in a line: SARS-CoV-2 microplaque inhibition assay in Vero-E6 cells. The class given is cell-based.
Setting [5] is: isolate 99-880, MIC at 50% inhibition.
Where [6] appears, read: isolate 99-892, MIC at 50% inhibition.
The mark [7] stands for this setting: isolate RA3, MIC at 50% inhibition.
[8] abbreviates: ATCC204304, isolate ATCC 204304.

The source of these data is US20250313546A1, “NUCLEIC ACID BINDERS” (UNIVERSITY OF STRATHCLYDE, priority 2022, published 2025).

Values after ≈ are worked out from the molar mass of the structure shown.

Experimental for C. albicans (ATCC 90028): as §1

In the case of `C/N=C(/CCNC(=O)c1cc(NC(=O)c2cc(NC(=O)c3ccc(/C=C/c4cnc5ccccc5c4)cc3)cn2C)cn1C)NC` [Ia10, 1-methyl-4-(1-methyl-4-(4-((E)-2-(quinolin-3-yl)vinyl)benzamido)-1H-pyrrole-2-carboxamido)-N—((Z)-3-(methylamino)-3-(methylimino)propyl)-1H-pyrrole-2-carboxamide], the MIC99 in data set [1] is below 5 µg/mL; in [3] it was 5 to 25 µg/mL (≈ 8.11 to 40.5 µM); in the data set on C. albicans (ATCC 90028), 5 to 25 µg/mL (≈ 8.11 to 40.5 µM); in the data set with Candida auris (H.17.157) it was 5 to 25 µg/mL (≈ 8.11 to 40.5 µM). Moreover, the “Blood conc @ 1 Hr” value in data set [2] (2 mg/kg IV dose in mice, blood, 1 Hr) was 204 nM. Further, in [2] (2 mg/kg IV dose in mice, lung, 1 Hr), the “Lung conc @ 1 Hr” value was determined as 28.968 µM. For the same compound, in [2] (2 mg/kg IV in mice), the “Accumulation in lung tissue” value is given as “remarkable accumulation in lung tissue”. For the same compound, in data set [2] (2 mg/kg IV in mice (higher doses were not investigated)), the Tolerability result was “well tolerated”. In addition, the Kp at 1 h in data set [2] (male, CD-1, mouse, lung vs whole blood, 2 mg/kg IV dose in mice, lung vs blood at 1 Hr, read-out: Lung accumulation factor) was around 142. The MIC50 in the data set with Rhizopus arrhizus (setting [5]) is 1 to 8 µg/mL (≈ 1.62 to 13 µM); with Rhizopus arrhizus (setting [6]) it was 1 to 8 µg/mL (≈ 1.62 to 13 µM); in the data set with Rhizopus arrhizus (setting [7]), 1 to 8 µg/mL (≈ 1.62 to 13 µM); against C. guilliiermondii, 1 to 8 µg/mL (≈ 1.62 to 13 µM); with C. glabrata (isolate 05-62), at most 1 µg/mL; against C. glabrata (isolate 05-761) it was at most 1 µg/mL. For the same compound, the MIC50 in the data set on C. glabrata (isolate CG3), with Aspergillus flavus (setting [8]) and in the data set on Aspergillus flavus (isolate Aflav2) was at most 1 µg/mL throughout. In addition, the “MIC50 C. guilliiermondii” value in the data set on C. guilliiermondii (isolate Cgui2) and against C. guilliiermondii (isolate Cgui3) was “** (** means 1 μg/mL < MIC50 <= 8 μg/mL)” throughout. Further, in the data set with Aspergillus flavus, the “MIC50 Aspergillus flavus” value was “*** (*** means MIC50 <= 1 μg/mL)”.

For the compound `[H]/N=C(\CCNC(=O)c1cc(NC(=O)c2cc(NC(=O)c3ccc(C=Cc4ccc(N(C)C)cc4)nc3)cn2C)cn1C)NC` [Ia9, (E)-6-(4-(dimethylamino)styryl)-N-(5-((5-((3-imino-3-(methylamino)propyl)carbamoyl)-1-methyl-1H-pyrrol-3-yl)carbamoyl)-1-methyl-1H-pyrrol-3-yl)nicotinamide], the MIC99 in data set [1] is 5 to 25 µg/mL (≈ 8.39 to 42 µM); in [3], below 5 µg/mL; in the data set on C. albicans (ATCC 90028), 5 to 25 µg/mL (≈ 8.39 to 42 µM); in the data set on Candida auris (H.17.157) it was above 50 µg/mL. Further, the MIC50 against Rhizopus arrhizus (setting [5]) is 1 to 8 µg/mL (≈ 1.68 to 13.4 µM); against Rhizopus arrhizus (setting [6]), 1 to 8 µg/mL (≈ 1.68 to 13.4 µM); against Rhizopus arrhizus (setting [7]), 1 to 8 µg/mL (≈ 1.68 to 13.4 µM); in the data set on C. guilliiermondii it was 1 to 8 µg/mL (≈ 1.68 to 13.4 µM); in the data set with C. glabrata (isolate 05-62), 1 to 8 µg/mL (≈ 1.68 to 13.4 µM); in the data set on C. glabrata (isolate 05-761), at most 1 µg/mL. Further, the MIC50 against C. glabrata (isolate CG3), against Aspergillus flavus (setting [8]) and with Aspergillus flavus (isolate Aflav2) was 1 to 8 µg/mL (≈ 1.68 to 13.4 µM) throughout. The “MIC50 C. guilliiermondii” value in the data set with C. guilliiermondii (isolate Cgui2) and in the data set on C. guilliiermondii (isolate Cgui3) was “** (** means 1 μg/mL < MIC50 <= 8 μg/mL)” in each case. In [4] (SI, IC50 (μM)/IC50 (μM), HEK293 cytotoxicity, Alkyl Amidines and NH Pyrroles), the “SARS-CoV-2 Selectivity Indices, Group” value is “B (Group B: 4.1 < SI <= 10)”. Besides, the IC50 in data set [4] (Severe acute respiratory syndrome coronavirus 2, Vero C1008, plaque inhibition, Vero-E6 cells, read-out: IC50 SARS-CoV-2) lay within 2 to 8 µM. Besides, in the data set on Aspergillus flavus, the “MIC50 Aspergillus flavus” value is “** (** means 1 μg/mL < MIC50 <= 8 μg/mL)”.

Regarding `C/N=C(\CCNC(=O)c1cc(NC(=O)c2cc(NC(=O)c3ccc(/C=C/c4ccc(N(C)C)cc4)nc3)cn2C)cn1C)NC` [Ia8, 6-((E)-4-(dimethylamino)styryl)-N-(1-methyl-5-((1-methyl-5-(((E)-3-(methylamino)-3-(methylimino)propyl)carbamoyl)-1H-pyrrol-3-yl)carbamoyl)-1H-pyrrol-3-yl)nicotinamide], the MIC99 in [1] is 5 to 25 µg/mL (≈ 8.2 to 41 µM); in data set [3], below 5 µg/mL; in the data set with C. albicans (ATCC 90028) it was 25 to 50 µg/mL (≈ 41 to 82 µM); in the data set on Candida auris (H.17.157) it was above 50 µg/mL. For the same compound, the MIC50 in the data set on Rhizopus arrhizus (setting [5]), against Rhizopus arrhizus (setting [6]), against Rhizopus arrhizus (setting [7]), with C. guilliiermondii, against C. glabrata (isolate 05-62) and in the data set on C. glabrata (isolate 05-761) was 1 to 8 µg/mL (≈ 1.64 to 13.1 µM) throughout. In addition, the MIC50 against C. glabrata (isolate CG3), against Aspergillus flavus (setting [8]) and in the data set with Aspergillus flavus (isolate Aflav2) was 1 to 8 µg/mL (≈ 1.64 to 13.1 µM) in each case. Besides, the “MIC50 C. guilliiermondii” value in the data set on C. guilliiermondii (isolate Cgui2) and in the data set on C. guilliiermondii (isolate Cgui3) was “** (** means 1 μg/mL < MIC50 <= 8 μg/mL)” throughout. Besides, the “MIC50 Aspergillus flavus” value with Aspergillus flavus is “** (** means 1 μg/mL < MIC50 <= 8 μg/mL)”.
